In patent US20250382621A1, “IMMUNE EFFECTOR CELL THERAPIES WITH ENHANCED EFFICACY” (Novartis AG, priority 2015, published 2025):
Residue numbers refer to the chain shown, from its start. Structures can show the parent of a compound that is named as a salt. Where two headings read alike, the source gives them in different places.

Legend:
Pan CD3+ T cells = assay: Dose response of LSD1 inhibitors on T cell phenotypes; conditions: for EC50: Homo sapiens, T-cell; for CD4+ Tscm percentage: at 100 nM
Description: Cells were isolated from in vitro culture, washed once in MACS+0.5% BSA buffer, and stained on ice using either biotinylated Protein L followed by incubated with a fluorochrome-conjugated streptavidin reagent or an antibody recognizing the given target antigen. In all analyses, the population of interest was gated based on forward vs side scatter characteristics, followed by singlet gating, and live cells were gated.
The following parameters were investigated: • 1. Ratio of CD8/CD4 were calculated; • 2. % Tscm, Tem, Tem of CD3+ T cells; • 3. Ratios of Tscm/Tem and Tscm/Tcm of CD3+ T cells were calculated; • 4. % Tscm, Tem, Tem of CD8+ or CD4+ T cells were calculated; • 5. Ratios of Tscm/Tem and Tscm/Tcm of CD8+ or CD4+ T cells were calculated; and/or • 6. In the case of CAR+-T cells, percentage of Tscm, Tem, Tem of CD19-CAR+ T, and BCMA-10-CAR+ T cells were evaluated.
The Tscm population were evaluated as double CD45RA+CCR7+ or triple CD45RA+CCR7+CD62L+ in a given total live CD3+ or subset CD4+ or CD8+ T cell population. Tem were presented as double CD45RA−CCR7− and Tem as CD45RA−CCR7+ in a given total live CD3+ or subset CD4+ or CD8+ T cell population (FIG. 19 and FIG. 25 illustrate the gating strategies).
In all instances, LSD inhibitor compounds were either resuspended in water (H2O) and/or DMSO, depending on compound solubility. In all instances compounds were added throughout the ex vivo T cell culture, and T cells were washed extensively prior to assay. […] In the figures, “control” refers to vehicle with no LSD inhibitor compound added. For Pan CD3+ T cell expansion experiment, compound treatment was started at 4 h or 24 h after activation; for CART cell production, compound treatment was started at 48 h after viral transduction, and all treatments continued through culture period in all conditions.
Compounds were refreshed every 2-3 days when fresh media is replenished. Following 10 days of expansion, T cells were harvested and de-beaded and their phenotypes were analyzed by flow cytometry using antibodies against CD3, CD4, CD8, CD45RA, CCR7, CD62L, CD27 and CD28 plus live/dead dye to exclude the dead cell population.

full-length LSD1 = molecular target: T1, full-length LSD1 (Homo sapiens, UniProt O60341); assay: FL-LSD1 LC-MS assay; type: biochemical; conditions: 0.4 nM FL-LSD1, H3K4me1 peptide substrate, 60 min room temperature; read-out: LCMS IC50 (LSD1 IC50 as measured by LCMS)
T1 construct: the full-length LSD1 and 0.5 pM FAD in reaction buffer
From the text: Representative compounds of the present disclosure were serially and separately diluted 3-fold in DMSO to obtain a total of twelve concentrations. […] The data were then fit to a dose response equation using the program Helios to get the IC50 values of the test compound.

T cells = assay: T cell phenotype after expansion with LSD1 shRNA; type: cell-based, human; conditions: for enrichment of TSCM in resulting CD4+ T cell population: vs normal expansion
Description: Flow cytometry was performed on a four laser Fortessa (Becton-Dickinson).
T cells were isolated by negative selection and expanded with anti-CD3/CD28 beads at a 3:1 ratio for 10 days. On day 1, T cells were transduced with lentiviral expression vectors containing LSD1 shRNA targeting sequences that co-expressed the fluorescent protein mCherry. Following expansion, T cell phenotypes of mCherry+ T cells were assessed by flow cytometry.

[1] = anti-CD3/CD28 beads 3:1, 10 days, mCherry+ cells

Molecule: c1ccc([C@@H]2C[C@H]2NC2CCNCC2)cc1 (relative stereo) [LSD1i-GSK, rel-N-[(1R,2S)-2-Phenylcyclopropyl]-4-Piperidinamine hydrochloride (1:2)]
- total expansion rate of total cells (Pan CD3+ T cells; 10 day expansion): without changing the total expansion rate of total cells
- ratio of CD8/CD4 (Pan CD3+ T cells; 10 day expansion, dose escalation): can significantly increase the ratio of CD8/CD4
- EC50 (Pan CD3+ T cells; read-out: EC50 for inducing Tscm CD3+ T cells): 1.08 nM
- EC50 (Pan CD3+ T cells; read-out: EC50 for inducing Tscm CD8+ T cells): 1.08 nM
- CD4+ Tscm percentage (Pan CD3+ T cells): about 5%
- ratio of Tscm/Tem of CD3+ T cells (Pan CD3+ T cells; dose elevation, Tscm/Tcm unchanged): increases in response to dose elevation
- ratio of Tscm/Tem of CD8+ T cells (Pan CD3+ T cells; dose elevation, hardly seen in the CD4+ population): significantly increases in response to dose elevation
- CD3+ Tscm and Tem percentage (Pan CD3+ T cells; observed between 1 nM to 100 nM, Tcm remain the same): could increase/sustain CD3+ Tscm, decrease Tem, in a dose responsive fashion
- CD8+ Tscm, CD4+ Tscm and Tem percentage (Pan CD3+ T cells; observed between 1 nM to 100 nM, Tcm unchanged): could increase/sustain CD8+ Tscm and CD4+ Tscm, decrease Tem, in a dose responsive fashion

Molecule: Cc1cc2c(cc1C#N)c(-c1cccc(N)c1C)cn2[C@H]1CC[C@H](O)CC1 [Compound 93, Trans-3-(3-amino-2-methylphenyl)-1-(4-hydroxycyclohexyl)-6-methyl-1H-indole-5-carbonitrile]
- CD4+ Tscm percentage (Pan CD3+ T cells): about 5%

Molecule: Cc1ccc(-c2ncc(OC[C@@H]3CCNC3)cc2-c2ccc(C#N)cc2)cc1 [Compound C, (R)-4-(5-(pyrrolidin-3-ylmethoxy)-2-(p-tolyl)pyridin-3-yl)benzonitrile]
- IC50 (full-length LSD1): 30 nM

Molecule: LSD1 2: shRNA to LSD1, sequence encoding shRNA SEQ ID NO: 127 (DNA CAGAAGGCCTAGACATTAAACCTCGAGGTTTAATGTCTAGGCCTTCTGTTTTTTGA)
- enrichment of TSCM in resulting CD4+ T cell population (T cells; CD4+ T cells): enriched in TSCM
- percentage of CD8+ T cells having the TSCM phenotype (CD45RA+CD62L+CCR7+CD27+CD95+) (T cells; [1]): ~50%

B1: LSD1 1A: shRNA to LSD1, sequence encoding shRNA SEQ ID NO: 125 (nucleic acid)
DNA: CGGTTGCTAGAAGCTACATCTGTTAATATTCATAGCAGATGTAGCTTCTAGCAACCGTTTTTTGA
- enrichment of TSCM in resulting CD4+ T cell population (T cells; CD4+ T cells): enriched in TSCM
- percentage of CD8+ T cells having the TSCM phenotype (CD45RA+CD62L+CCR7+CD27+CD95+) (T cells; [1]): ~50%

B2: LSD1 1B: shRNA to LSD1, sequence encoding shRNA SEQ ID NO: 126 (nucleic acid)
DNA: B1 DNA with C14T, C20T
- percentage of CD4+ T cells having the TSCM phenotype (CD45RA+CD62L+CCR7+CD27+CD95+) (T cells; CD4+ T cells, anti-CD3/CD28 beads 3:1, 10 days, mCherry+ cells): up to 20%
- percentage of CD8+ T cells having the TSCM phenotype (CD45RA+CD62L+CCR7+CD27+CD95+) (T cells; [1]): ~50%
